System: patients with refractory metastatic colorectal cancer (mCRC)
Experiment: PFS, OS and disease control in the training (evaluation) cohort of refractory mCRC patients receiving TAS-102 (n=52, Japan), by baseline characteristics, SNP genotype and toxicity
Format: in vivo, human
Conditions: for Overall Survival Median, months / Progression-Free Survival Median, months / Overall Survival HR / Progression-Free Survival HR / HR for OS / HR for PFS: evaluation cohort
Procedure: All patients underwent the treatment in salvage-line setting. […]
(§1) Genomic DNA was extracted from peripheral whole blood in patients of all cohorts using the QIAmp Kit (Qiagen, Valencia, Calif., USA) according to the manufacturer's protocol (www.qiagen.com). The candidate SNPs were genotyped using PCR-based direct DNA sequence analysis by ABI 3100A Capillary Genetic Analyzer and Sequencing Scanner v1.0 (Applied Biosystems). Amplification of extracted DNA was carried out using both forward and reverse primers for each gene polymorphism as shown in Table 1. […] The investigators analyzing SNPs were blinded to the clinical data of the study patients.
The primary endpoint in this study was progression-free survival (PFS), and the secondary endpoints were overall survival (OS) and disease control rate (DCR). PFS was calculated from the date of starting treatment to the first observation of disease progression or death from any cause. If a patient had no disease progression or death, PFS was censored at the date of last follow up. OS was calculated from the date of starting treatment until the date of death from any cause or the date of the last follow-up, at which point OS was censored. The disease control rate (DCR) was defined as the proportion of patients who achieved a stable disease (SD) or […] according to RECISTv1.1. Chi-square test was used to examine the difference in baseline patient characteristics among the three cohorts. Allelic distribution of all SNPs by ethnicity for deviation from Hardy-Weinberg equilibrium and the allelic frequencies of SNPs were tested using the Chi-square tests with one degree of freedom. The associations between candidate SNPs and disease control, and toxicities were examined using contingency tables and Fisher's exact test. The associations of SNPs with PFS and OS were analysed using Kaplan-Meier curves and the log-rank test. Because the true mode of inheritance of candidate SNPs was not established yet, a codominant or dominant genetic model if appropriate was considered.
All patients underwent the treatment in salvage-line setting. […] In all patients, adverse events were graded according to the Common Terminology Criteria for Adverse Events, version 4.0. […]
as §1, with “tested” for “genotyped”, “Biosystems).” for “Biosystems). Amplification of extracted DNA was carried out using both forward and reverse primers for each gene polymorphism as shown in Table 1.”, “data.” for “data of the study patients.”
The primary endpoint in this study was progression-free survival (PFS), and the secondary endpoints were overall survival (OS) and disease control rate (DCR).

[1] = Performance status ECOG 1 vs ECOG 0, univariate
[2] = Peritoneal No vs Yes, univariate
[3] = Pre-chemo numbers ≥4 vs <4, univariate
[4] = Primary tumor resection No vs Yes, univariate
[5] = Prior EGFR No vs Yes, univariate
[6] = Prior REGORA No vs Yes, univariate
[7] = Prior bev No vs Yes, univariate
[8] = Tumor site Left vs Right, univariate
[9] = XRCC3 rs861539 G/A vs G/G, univariate
[10] = p21 rs1059234 Any C vs T/T, multivariable
[11] = p21 rs1059234 Any C vs T/T, univariate
[12] = p21 rs1059234 C/C vs T/T, multivariable
[13] = p21 rs1059234 C/C vs T/T, univariate
[14] = p21 rs1059234 T/C vs T/T, multivariable
[15] = p21 rs1059234 T/C vs T/T, univariate
[16] = p21 rs1801270 A/C vs A/A, multivariable
[17] = p21 rs1801270 A/C vs A/A, univariate

## Trifluridine/tipiracil [TAS-102]
Number of metastases ≤2
  Overall Survival Median, months: 8.3 months
  Progression-Free Survival Median, months: 2.7 months
Performance status ECOG 0
  Overall Survival Median, months: 8.7 months
  Progression-Free Survival Median, months: 2.9 months
Performance status ECOG 1
  Overall Survival Median, months: 7.2 months
  Progression-Free Survival Median, months: 2.7 months
[1]
  Overall Survival HR: 1.42
  Progression-Free Survival HR: 1.06
Peritoneal No
  Overall Survival Median, months: 8.3 months
  Progression-Free Survival Median, months: 2.3 months
[2]
  Overall Survival HR: 0.84
  Progression-Free Survival HR: 1.48
Peritoneal Yes
  Overall Survival Median, months: 6.3 months
  Progression-Free Survival Median, months: 3.1 months
Pre-chemo numbers <4
  Overall Survival Median, months: 8.7 months
  Progression-Free Survival Median, months: 3.0 months
Pre-chemo numbers ≥4
  Overall Survival Median, months: 6.3 months
  Progression-Free Survival Median, months: 2.1 months
[3]
  Overall Survival HR: 2.48
  Progression-Free Survival HR: 1.73
Primary tumor resection No
  Overall Survival Median, months: 8.1+ months
  Progression-Free Survival Median, months: 2.1 months
[4]
  Overall Survival HR: 1.72
  Progression-Free Survival HR: 1.39
Primary tumor resection Yes
  Overall Survival Median, months: 8.1 months
  Progression-Free Survival Median, months: 3.0 months
Prior EGFR No
  Overall Survival Median, months: 15.6+ months
  Progression-Free Survival Median, months: 3.7 months
[5]
  Overall Survival HR: 0.35
  Progression-Free Survival HR: 0.49
Prior EGFR Yes
  Overall Survival Median, months: 6.3 months
  Progression-Free Survival Median, months: 2.1 months
Prior REGORA No
  Overall Survival Median, months: 14.8+ months
  Progression-Free Survival Median, months: 3.7 months
[6]
  Overall Survival HR: 0.50
  Progression-Free Survival HR: 0.65
Prior REGORA Yes
  Overall Survival Median, months: 8.1 months
  Progression-Free Survival Median, months: 2.1 months
Prior bev No
  Overall Survival Median, months: 4.1 months
  Progression-Free Survival Median, months: 2.5 months
[7]
  Overall Survival HR: 3.43
  Progression-Free Survival HR: 1.86
Prior bev Yes
  Overall Survival Median, months: 8.3 months
  Progression-Free Survival Median, months: 2.9 months
Sex Female
  Overall Survival Median, months: 8.3 months
  Progression-Free Survival Median, months: 3.4 months
Sex Female vs Male, univariate
  Overall Survival HR: 0.47
  Progression-Free Survival HR: 0.60
Sex Male
  Overall Survival Median, months: 4.9 months
  Progression-Free Survival Median, months: 2.1 months
Tumor site Left
  Overall Survival Median, months: 8.1 months
  Progression-Free Survival Median, months: 2.9 months
[8]
  Overall Survival HR: 0.97
  Progression-Free Survival HR: 1.30
Tumor site Right
  Overall Survival Median, months: 8.7 months
  Progression-Free Survival Median, months: 3.3 months
XRCC3 rs861539, multivariable
  HR for OS: 0.31
  HR for PFS: 0.52
[9]
  HR for OS: 0.25
  HR for PFS: 0.44
p21 rs1059234 Any C
  OS median, months (95% CI): 12.4 (5.4, 15.6+) months
  PFS median, months (95% CI): 2.7 (2.1, 3.5) months
[10]
  OS HR (95% CI)‡: 0.50 (0.20, 1.25)
  PFS HR (95% CI) ‡: 0.74 (0.37, 1.49)
[11]
  OS HR (95% CI)†: 0.64 (0.27, 1.56)
  PFS HR (95% CI) †: 0.88 (0.44, 1.74)
p21 rs1059234 C/C
  OS median, months (95% CI): 6.3 (2.7, 10.7+) months
  PFS median, months (95% CI): 2.9 (1.6, 4.9) months
[12]
  OS HR (95% CI)‡: 0.67 (0.21, 2.12)
  PFS HR (95% CI) ‡: 0.73 (0.30, 1.74)
[13]
  OS HR (95% CI)†: 0.76 (0.25, 2.35)
  PFS HR (95% CI) †: 0.95 (0.42, 2.16)
p21 rs1059234 T/C
  OS median, months (95% CI): 12.4 (5.3, 15.6+) months
  PFS median, months (95% CI): 2.7 (2.1, 3.5) months
[14]
  OS HR (95% CI)‡: 0.42 (0.15, 1.19)
  PFS HR (95% CI) ‡: 0.75 (0.35, 1.60)
[15]
  OS HR (95% CI)†: 0.59 (0.22, 1.57)
  PFS HR (95% CI) †: 0.84 (0.40, 1.76)
p21 rs1059234 T/T
  OS median, months (95% CI): 7.2 (3.3, 8.7) months
  PFS median, months (95% CI): 3.3 (1.6, 4.1) months
p21 rs1801270 A/A
  OS median, months (95% CI): 7.2 (3.3, 8.7) months
  PFS median, months (95% CI): 3.3 (1.6, 4.1) months
p21 rs1801270 A/C
  OS median, months (95% CI): 12.4 (5.3, 15.6+) months
  PFS median, months (95% CI): 2.3 (1.8, 3.5) months
[16]
  OS HR (95% CI)‡: 0.39 (0.13, 1.11)
  PFS HR (95% CI) ‡: 0.72 (0.34, 1.55)
[17]
  OS HR (95% CI)†: 0.53 (0.19, 1.47)
  PFS HR (95% CI) †: 0.82 (0.39, 1.74)
p21 rs1801270 Any C
  OS median, months (95% CI): 12.4 (5.4, 15.6+) months
  PFS median, months (95% CI): 2.7 (2.1, 3.5) months
p21 rs1801270 Any C vs A/A, multivariable
  OS HR (95% CI)‡: 0.50 (0.20, 1.25)

Source: US20190233884A1 (University of Southern California, priority 2016, published 2019)
